28 molecules from patent US12473296B2, “Perk inhibiting compounds” (HiberCell, Inc., priority 2019, dated 2025) can be followed below.

For assay [1], the target named is EIF2AK3 (PERK) catalytic domain (amino acids 536-1116) (Homo sapiens (Human), UniProt Q9NZJ5). In words: PERK in vitro activity assay (isolated), TR-FRET kinase assay. The conditions noted are these: isolated PERK enzyme, 1.5 μM ATP, GFP-eIF2a substrate; read-out: Biochemical IC50. The procedure, abridged: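 Human PERK catalytic domain (aa 536-1116) with 100-200 nM GFP-eIF2a in 50 mM HEPES pH 7.5, 10 mM MgCl2, 1.0 mM EGTA, 0.01% Brij-35; enzyme-started reaction run 45 min at room temperature. Stopped with 10 mM EDTA, 2 nM Tb-anti-phospho-eIF2a added for 90 min; IC50 from TR-FRET ratio by 4-parameter logistic fit.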
EIF2AK3 (PERK) catalytic domain (amino acids 536-1116), sequence (Q9NZJ5 536-1116): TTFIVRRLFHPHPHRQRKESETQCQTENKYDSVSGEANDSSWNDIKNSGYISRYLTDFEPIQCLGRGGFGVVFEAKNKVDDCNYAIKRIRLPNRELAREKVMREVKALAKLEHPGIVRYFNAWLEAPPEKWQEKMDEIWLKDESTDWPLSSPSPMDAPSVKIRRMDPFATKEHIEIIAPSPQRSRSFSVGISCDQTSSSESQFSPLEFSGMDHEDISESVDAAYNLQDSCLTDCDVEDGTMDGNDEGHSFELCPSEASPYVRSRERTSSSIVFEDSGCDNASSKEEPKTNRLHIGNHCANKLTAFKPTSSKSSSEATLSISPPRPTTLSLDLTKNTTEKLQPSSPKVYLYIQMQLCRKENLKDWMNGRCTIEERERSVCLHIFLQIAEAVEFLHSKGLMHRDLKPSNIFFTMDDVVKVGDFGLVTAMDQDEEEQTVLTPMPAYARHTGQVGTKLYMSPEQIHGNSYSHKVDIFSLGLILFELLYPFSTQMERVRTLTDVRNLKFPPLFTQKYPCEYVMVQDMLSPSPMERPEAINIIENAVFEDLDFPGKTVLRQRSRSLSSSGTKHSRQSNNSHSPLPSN
Background: TR-FRET usually uses a lanthanide donor and a delayed reading to cut background.

Assay [2] deals with PERK (Homo sapiens (Human), UniProt Q9NZJ5). Briefly: PERK cellular assay (TR-FRET, HEK293-EGFP-eIF2α cells, tunicamycin-induced ER stress). The class given is cell-based. The conditions noted are these: tunicamycin 2 hours, read-out: Cellular IC50 (μM) (EIF2a). The procedure, abridged:
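After 2 h tunicamycin ([…]) stress following 30 min compound pretreatment at 37 °C, lysed HEK293-EGFP-eIF2α cells were read by TR-FRET. IC50 derived by 4-parameter logistic fitting of percent inhibition, DMSO-normalized, from 10-point 3-fold dilutions.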

PERK, sequence (Q9NZJ5 30-1116): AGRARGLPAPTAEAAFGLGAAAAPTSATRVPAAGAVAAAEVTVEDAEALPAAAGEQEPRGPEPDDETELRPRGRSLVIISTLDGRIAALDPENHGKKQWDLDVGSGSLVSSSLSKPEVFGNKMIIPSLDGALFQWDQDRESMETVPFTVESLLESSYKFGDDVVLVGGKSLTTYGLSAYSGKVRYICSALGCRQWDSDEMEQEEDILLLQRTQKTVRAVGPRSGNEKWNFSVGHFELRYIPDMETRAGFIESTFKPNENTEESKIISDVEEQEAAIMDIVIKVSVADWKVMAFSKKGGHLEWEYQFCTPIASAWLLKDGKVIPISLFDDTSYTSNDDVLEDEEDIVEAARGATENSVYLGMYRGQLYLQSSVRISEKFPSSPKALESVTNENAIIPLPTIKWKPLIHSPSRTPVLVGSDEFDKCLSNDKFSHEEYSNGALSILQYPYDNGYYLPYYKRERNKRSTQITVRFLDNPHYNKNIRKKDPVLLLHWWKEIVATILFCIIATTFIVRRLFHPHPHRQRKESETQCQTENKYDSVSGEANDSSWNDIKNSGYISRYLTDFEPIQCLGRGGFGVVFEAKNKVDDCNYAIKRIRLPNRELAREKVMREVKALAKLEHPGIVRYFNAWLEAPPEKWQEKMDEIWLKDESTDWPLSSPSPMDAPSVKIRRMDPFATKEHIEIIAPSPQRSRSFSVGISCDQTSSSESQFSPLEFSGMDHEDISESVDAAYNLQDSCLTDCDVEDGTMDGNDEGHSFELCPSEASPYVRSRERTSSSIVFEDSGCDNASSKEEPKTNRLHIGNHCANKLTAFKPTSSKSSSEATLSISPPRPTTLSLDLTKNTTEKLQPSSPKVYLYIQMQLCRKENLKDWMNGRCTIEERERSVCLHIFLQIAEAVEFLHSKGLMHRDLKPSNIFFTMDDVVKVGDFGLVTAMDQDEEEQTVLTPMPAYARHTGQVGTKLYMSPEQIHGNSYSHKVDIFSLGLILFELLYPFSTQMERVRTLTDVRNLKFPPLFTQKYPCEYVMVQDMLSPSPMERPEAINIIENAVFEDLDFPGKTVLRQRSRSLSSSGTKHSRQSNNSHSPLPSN

A word on the IC50: it is the midpoint of a concentration-inhibition curve. Regarding `Cc1cc(NC(=O)C(O)c2cccc3c2OCC3)ccc1-c1cnc(N)c(C(=O)NC(C)C)c1` (centres unmarked) [Example 75, 2-amino-5-(4-(2-(2,3-dihydrobenzofuran-7-yl)-2-hydroxyacetamido)-2-methylphenyl)-N-isopropylnicotinamide], the IC50 fell in the range of 101 to 250 nM in assay [1] and 1 to 2 µM in assay [2].
The matching figures for `Cc1cc(NC(=O)C(O)c2cccc3cnn(C)c23)ccc1-c1cnc(N)c(C(=O)NC(C)C)c1` (centres unmarked) [Example 76, 2-amino-5-(4-(2-hydroxy-2-(1-methyl-1H-indazol-7-yl)acetamido)-2-methylphenyl)-N-isopropylnicotinamide]: 251 to 500 nM and 3 to 4 µM.
Take `Cc1cc(NC(=O)C(O)c2cccc3cnn(C)c23)ccc1-c1cnc(N)c(C(=O)NC(C)C)c1` (centres unmarked) [Example 77, 2-amino-5-(4-(2-hydroxy-2-(1-methyl-1H-indazol-7-yl)acetamido)-2-methylphenyl)-N-isopropylnicotinamide]: the figures for the IC50 in assay [1] and in assay [2] were 501 to 1000 nM and 3 to 4 µM, respectively.
Taken in the same sequence, the figures for `Cc1nc(C(O)C(=O)Nc2ccc(-c3cnc(N)c(C(=O)NC(C)C)c3)c(C)c2)cs1` (centres unmarked) [Example 78, 2-amino-5-(4-(2-hydroxy-2-(2-methylthiazol-4-yl)acetamido)-2-methylphenyl)-N-isopropylnicotinamide] were 1000 to 2000 nM and greater than 5 µM.
Regarding `Cc1nc(C(O)C(=O)Nc2ccc(-c3cnc(N)c(C(=O)NC(C)C)c3)c(C)c2)cs1` (centres unmarked) [Example 79, 2-amino-5-(4-(2-hydroxy-2-(2-methylthiazol-4-yl)acetamido)-2-methylphenyl)-N-isopropylnicotinamide], the IC50 was 1000 to 2000 nM in assay [1] and greater than 5 µM in assay [2].
The matching figures for `CC(C)NC(=O)c1cc(-c2ccc(NC(=O)C(O)c3cc(F)cc(F)c3)cc2)cnc1N` (centres unmarked) [Example 80, 2-amino-5-(4-(2-(3,5-difluorophenyl)-2-hydroxyacetamido)phenyl)-N-isopropylnicotinamide]: 1 to 25 nM and 0.251 to 0.5 µM.
The matching figures for `CC(C)NC(=O)c1cc(-c2ccc(NC(=O)C(O)c3cc(F)cc(F)c3)cc2)cnc1N` (centres unmarked) [Example 81, 2-amino-5-(4-(2-(3,5-difluorophenyl)-2-hydroxyacetamido)phenyl)-N-isopropylnicotinamide]: 101 to 250 nM and 4 to 5 µM.
Taken in the same sequence, the figures for `CCNC(=O)c1cc(-c2ccc(NC(=O)C(O)c3cc(F)cc(F)c3)cc2Cl)cnc1N` (centres unmarked) [Example 82, 2-amino-5-(2-chloro-4-(2-(3,5-difluorophenyl)-2-hydroxyacetamido)phenyl)-N-ethylnicotinamide] were 1 to 25 nM and 0.026 to 0.05 µM.
Take `CCNC(=O)c1cc(-c2ccc(NC(=O)C(O)c3cc(F)cc(F)c3)cc2Cl)cnc1N` (centres unmarked) [Example 83, 2-amino-5-(2-chloro-4-(2-(3,5-difluorophenyl)-2-hydroxyacetamido)phenyl)-N-ethylnicotinamide]: the IC50 in assay [1] fell in the range of 1 to 25 nM; in assay [2], 0.251 to 0.5 µM.
The matching figures for `Nc1ncc(-c2ccc(NC(=O)C(O)c3cc(F)cc(F)c3)cc2Cl)cc1C(=O)NC1CC1` (centres unmarked) [Example 84, 2-amino-5-(2-chloro-4-(2-(3,5-difluorophenyl)-2-hydroxyacetamido)phenyl)-N-cyclopropyl-nicotinamide]: 1 to 25 nM and 0.001 to 0.025 µM.
Regarding `Nc1ncc(-c2ccc(NC(=O)C(O)c3cc(F)cc(F)c3)cc2Cl)cc1C(=O)NC1CC1` (centres unmarked) [Example 85, 2-amino-5-(2-chloro-4-(2-(3,5-difluorophenyl)-2-hydroxyacetamido)phenyl)-N-cyclo-propylnicotinamide], the IC50 is 1 to 25 nM in assay [1] and 0.051 to 0.1 µM in assay [2].
For `Nc1ncc(-c2ccc(NC(=O)C(O)c3cc(F)cc(F)c3)cc2Cl)cc1C(=O)NCC(F)(F)F` (centres unmarked) [Example 86, 2-amino-5-(2-chloro-4-(2-(3,5-difluorophenyl)-2-hydroxyacetamido)phenyl)-N-(2,2,2-trifluoroethyl) nicotinamide], the values for the IC50 in assay [1] and in assay [2] were 1 to 25 nM and 0.001 to 0.025 µM, respectively.
Take `Nc1ncc(-c2ccc(NC(=O)C(O)c3cc(F)cc(F)c3)cc2Cl)cc1C(=O)NCC(F)(F)F` (centres unmarked) [Example 87, 2-amino-5-(2-chloro-4-(2-(3,5-difluorophenyl)-2-hydroxyacetamido)phenyl)-N-(2,2,2-trifluoroethyl) nicotinamide]: the IC50 in assay [1] lay within 26 to 50 nM; in assay [2], 0.101 to 0.25 µM.
`CCc1cccc(C(O)C(=O)Nc2ccc(-c3cnc(N)c(C(=O)NC(C)C)c3)c(Cl)c2)c1` (centres unmarked) [Example 94, 2-amino-5-(2-chloro-4-(2-(3-ethylphenyl)-2-hydroxyacetamido)phenyl)-N-isopropylnicotinamide]: the IC50 in assay [1] was 1 to 25 nM; in assay [2], 0.001 to 0.025 µM.
Taken in the same sequence, the figures for `CCc1cccc(C(O)C(=O)Nc2ccc(-c3cnc(N)c(C(=O)NC(C)C)c3)c(Cl)c2)c1` (centres unmarked) [Example 95, 2-amino-5-(2-chloro-4-(2-(3-ethylphenyl)-2-hydroxyacetamido)phenyl)-N-isopropylnicotinamide] were 26 to 50 nM and 0.101 to 0.25 µM.
Taken in the same sequence, the figures for `CCNC(=O)c1cc(-c2ccc(NC(=O)C(O)c3cc(F)cc(F)c3)cc2CC)cnc1N` (centres unmarked) [Example 98, 2-amino-5-(4-(2-(3,5-difluorophenyl)-2-hydroxyacetamido)-2-ethylphenyl)-N-ethylnicotinamide] were 1 to 25 nM and 0.001 to 0.025 µM.
Taken in the same sequence, the figures for `CCNC(=O)c1cc(-c2ccc(NC(=O)C(O)c3cc(F)cc(F)c3)cc2CC)cnc1N` (centres unmarked) [Example 99, 2-amino-5-(4-(2-(3,5-difluorophenyl)-2-hydroxyacetamido)-2-ethylphenyl)-N-ethylnicotinamide] were 26 to 50 nM and 0.101 to 0.25 µM.
Regarding `CCc1cc(NC(=O)C(O)c2cc(F)cc(F)c2)ccc1-c1cnc(N)c(C(=O)NCC(F)(F)F)c1` (centres unmarked) [Example 100, 2-amino-5-(4-(2-(3,5-difluorophenyl)-2-hydroxyacetamido)-2-ethylphenyl)-N-(2,2,2-trifluoroethyl) nicotinamide], the IC50 in assay [1] lay in the range of 1 to 25 nM; in assay [2], 0.001 to 0.025 µM.
Consider `CCc1cc(NC(=O)C(O)c2cc(F)cc(F)c2)ccc1-c1cnc(N)c(C(=O)NCC(F)(F)F)c1` (centres unmarked) [Example 101, 2-amino-5-(4-(2-(3,5-difluorophenyl)-2-hydroxyacetamido)-2-ethylphenyl)-N-(2,2,2-trifluoroethyl) nicotinamide], for which the IC50 in assay [1] lay in the range of 1 to 25 nM; in assay [2] it was 0.051 to 0.1 µM.
Consider `CCc1cc(NC(=O)C(O)c2cc(F)cc(F)c2)ccc1-c1cnc(N)c(C(=O)NC2CC2)c1` (centres unmarked) [Example 102, 2-amino-N-cyclopropyl-5-(4-(2-(3,5-difluorophenyl)-2-hydroxyacetamido)-2-ethylphenyl) nicotinamide], for which the IC50 in assay [1] fell in the range of 1 to 25 nM; in assay [2], 0.001 to 0.025 µM.
As for `CCc1cc(NC(=O)C(O)c2cc(F)cc(F)c2)ccc1-c1cnc(N)c(C(=O)NC2CC2)c1` (centres unmarked) [Example 103, 2-amino-N-cyclopropyl-5-(4-(2-(3,5-difluorophenyl)-2-hydroxyacetamido)-2-ethylphenyl) nicotinamide], the IC50 lay within 26 to 50 nM in assay [1] and 0.101 to 0.25 µM in assay [2].
For `CCc1cccc(C(O)C(=O)Nc2ccc(-c3cnc(N)c(C(=O)NC(C)C)c3)c(CC)c2)c1` (centres unmarked) [Example 106, 2-amino-5-(2-ethyl-4-(2-(3-ethylphenyl)-2-hydroxyacetamido)phenyl)-N-isopropylnicotinamide], the values for the concentration for half-maximal inhibition (IC50) in assay [1] and in assay [2] were 1 to 25 nM and 0.001 to 0.025 µM, respectively.
Taken in the same sequence, the figures for `CCc1cccc(C(O)C(=O)Nc2ccc(-c3cnc(N)c(C(=O)NC(C)C)c3)c(CC)c2)c1` (centres unmarked) [Example 107, 2-amino-5-(2-ethyl-4-(2-(3-ethylphenyl)-2-hydroxyacetamido)phenyl)-N-isopropylnicotinamide] were 51 to 100 nM and 0.251 to 0.5 µM.
Taken in the same sequence, the figures for `CCc1cc(NC(=O)C(O)c2cccc(C(F)(F)F)c2)ccc1-c1cnc(N)c(C(=O)NC(C)C)c1` (centres unmarked) [Example 110, 2-amino-5-(2-ethyl-4-(2-hydroxy-2-(3-(trifluoromethyl)phenyl)acetamido)phenyl)-N-isopropylnicotinamide] were 1 to 25 nM and 0.001 to 0.025 µM.
`CCc1cc(NC(=O)C(O)c2cccc(C(F)(F)F)c2)ccc1-c1cnc(N)c(C(=O)NC(C)C)c1` (centres unmarked) [Example 111, 2-amino-5-(2-ethyl-4-(2-hydroxy-2-(3-(trifluoromethyl)phenyl)acetamido)phenyl)-N-isopropylnicotinamide]: the IC50 lay in the range of 101 to 250 nM in assay [1] and 0.101 to 0.25 µM in assay [2].
Consider `COc1cc(NC(=O)C(O)c2cc(F)cc(F)c2)ccc1-c1cnc(N)c(C(=O)NC(C)C)c1` (centres unmarked) [Example 112, 2-amino-5-(4-(2-(3,5-difluorophenyl)-2-hydroxyacetamido)-2-methoxyphenyl)-N-isopropylnicotinamide], for which the IC50 in assay [1] lay in the range of 51 to 100 nM; in assay [2], 0.251 to 0.5 µM.
The matching figures for `CC(C)NC(=O)c1cc(-c2ccc(NC(=O)C(O)c3cc(F)cc(F)c3)cc2OC(F)(F)F)cnc1N` (centres unmarked) [Example 113, 2-amino-5-(4-(2-(3,5-difluorophenyl)-2-hydroxyacetamido)-2-(trifluoromethoxy)phenyl)-N-isopropylnicotinamide]: 51 to 100 nM and 0.501 to 1 µM.
Taken in the same sequence, the figures for `CC(C)NC(=O)c1cc(-c2ccc(NC(=O)C(O)c3cc(F)cc(F)c3)cc2OC(F)(F)F)cnc1N` (centres unmarked) [Example 114, 2-amino-5-(4-(2-(3,5-difluorophenyl)-2-hydroxyacetamido)-2-(trifluoromethoxy)phenyl)-N-isopropylnicotinamide] were 251 to 500 nM and greater than 5 µM.
